Values of other authors in US4873092A, “Slow-releasing preparation” (Murata Kikai Kabushiki Kaisha, priority 1987, dated 1989).

Details: mouce

COc1cccc2c1C(=O)c1c(O)c3c(c(O)c1C2=O)C[C@@](O)(C(=O)CO)C[C@@H]3O[C@H]1C[C@H](N)[C@H](O)[C@H](C)O1 [Adriamycin]
LD50 value: 9.8 mg/kg
